Biological target: H1047R PIK3CA enzyme (Homo sapiens, UniProt P42336, H1047R)
Assay: ADP-Glo Biochemical PIK3CA Kinase Assay

H1047R PIK3CA enzyme, sequence (P42336 whole entry H1047R): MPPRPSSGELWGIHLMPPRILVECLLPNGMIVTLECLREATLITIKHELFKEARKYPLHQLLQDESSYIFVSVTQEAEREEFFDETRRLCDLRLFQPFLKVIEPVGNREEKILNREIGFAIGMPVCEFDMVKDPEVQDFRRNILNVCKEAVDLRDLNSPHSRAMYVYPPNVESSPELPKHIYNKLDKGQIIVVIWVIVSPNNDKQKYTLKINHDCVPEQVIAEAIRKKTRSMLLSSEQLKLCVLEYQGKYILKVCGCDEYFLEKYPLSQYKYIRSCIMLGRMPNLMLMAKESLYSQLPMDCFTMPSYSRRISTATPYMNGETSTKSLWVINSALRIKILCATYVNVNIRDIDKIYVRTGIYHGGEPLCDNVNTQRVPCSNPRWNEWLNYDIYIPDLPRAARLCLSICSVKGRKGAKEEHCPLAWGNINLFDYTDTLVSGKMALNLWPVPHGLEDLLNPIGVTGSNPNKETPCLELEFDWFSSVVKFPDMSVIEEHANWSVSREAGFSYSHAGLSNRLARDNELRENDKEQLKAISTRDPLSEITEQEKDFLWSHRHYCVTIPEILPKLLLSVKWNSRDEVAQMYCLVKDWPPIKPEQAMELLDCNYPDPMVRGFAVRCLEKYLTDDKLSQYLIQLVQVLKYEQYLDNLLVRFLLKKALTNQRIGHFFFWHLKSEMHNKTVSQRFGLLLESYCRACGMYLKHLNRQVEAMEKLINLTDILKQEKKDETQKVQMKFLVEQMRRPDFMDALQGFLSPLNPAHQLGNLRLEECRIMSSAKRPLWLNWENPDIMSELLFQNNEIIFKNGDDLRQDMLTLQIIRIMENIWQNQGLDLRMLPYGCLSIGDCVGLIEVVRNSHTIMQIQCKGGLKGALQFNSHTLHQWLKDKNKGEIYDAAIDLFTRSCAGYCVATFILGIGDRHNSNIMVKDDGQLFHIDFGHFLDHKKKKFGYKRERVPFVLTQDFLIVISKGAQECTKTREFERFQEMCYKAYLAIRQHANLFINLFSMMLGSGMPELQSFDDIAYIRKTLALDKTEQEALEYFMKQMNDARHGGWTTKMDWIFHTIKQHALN
H1047R PIK3CA enzyme, sequence (P27986 whole entry partner): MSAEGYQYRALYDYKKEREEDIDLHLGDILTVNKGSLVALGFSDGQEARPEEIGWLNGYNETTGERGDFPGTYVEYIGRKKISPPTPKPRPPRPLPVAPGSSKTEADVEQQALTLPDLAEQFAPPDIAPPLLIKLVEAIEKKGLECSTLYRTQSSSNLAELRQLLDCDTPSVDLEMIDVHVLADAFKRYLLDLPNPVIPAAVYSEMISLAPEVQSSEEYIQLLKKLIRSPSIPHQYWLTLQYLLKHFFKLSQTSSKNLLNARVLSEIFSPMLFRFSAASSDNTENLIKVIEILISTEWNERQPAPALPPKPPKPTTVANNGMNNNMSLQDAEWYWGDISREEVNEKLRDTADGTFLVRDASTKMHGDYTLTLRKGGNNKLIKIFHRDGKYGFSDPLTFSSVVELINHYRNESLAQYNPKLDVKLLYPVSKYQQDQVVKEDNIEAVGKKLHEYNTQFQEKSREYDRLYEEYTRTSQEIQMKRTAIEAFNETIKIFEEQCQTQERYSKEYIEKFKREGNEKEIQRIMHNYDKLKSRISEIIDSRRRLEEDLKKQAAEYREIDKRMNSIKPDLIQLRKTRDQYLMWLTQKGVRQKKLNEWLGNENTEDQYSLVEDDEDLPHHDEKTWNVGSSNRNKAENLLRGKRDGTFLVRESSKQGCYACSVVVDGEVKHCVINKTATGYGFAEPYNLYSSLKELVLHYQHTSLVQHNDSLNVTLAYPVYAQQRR

`Cc1ccccc1C1NC(=O)c2cccc(Nc3nc(C)c4ccccc4n3)c21` (stereo not drawn) [Compound I-28] and `Cc1ccccc1C1NC(=O)c2cccc(NC(=O)c3ncc4c(F)cc(F)cn34)c21` (stereo not drawn) [Compound I-180, 6,8-Difluoro-N-(1-oxo-3-(o-tolyl)isoindolin-4-yl)imidazo[1,5-a]pyridine-3-carboxamide] fall in the same range of IC50: 10 to 100 µM for the first, 10 to 100 µM for the second.

First: CC(C)(CN)n1cc(-c2cc(NC(=O)N3C[C@](O)(C(F)(F)F)c4cc(F)ccc43)c3c(c2)C(=O)N[C@@H]3c2cc(F)ccc2Cl)cn1 (single isomer, unassigned) [Compound I-2650]
Second: O=C1N[C@H](c2cc(F)ccc2Cl)c2c(NC(=O)N3C[C@](O)(C(F)(F)F)c4cc(F)ccc43)cc(-n3nccn3)cc21 (single isomer, unassigned) [Compound I-2570]
The IC50 of the first is lower: 0.5 to 1 µM for the first, 1 to 10 µM for the second. The first is the more potent here.

`COc1cccc(-c2cc(NC(=O)c3cc(F)cc(C(F)(F)F)c3)c3c(c2)C(=O)NC3c2cc(F)ccc2Cl)n1` (stereo not drawn) [Compound I-891] and `COc1cncc(-c2cc(NC(=O)c3cc(F)cc(C(F)(F)F)c3)c3c(c2)C(=O)NC3c2cc(F)ccc2Cl)c1` (stereo not drawn) [Compound I-854] cannot be ordered by IC50: at most 0.1 µM for the first, at most 0.1 µM for the second.

First: CC(C)[C@@]1(O)CN(C(=O)Nc2cccc3c2[C@H](c2cc(F)ccc2Cl)NC3=O)c2ccc(F)cc21 (single isomer, unassigned) [Compound I-2452]
Second: O=C1N[C@H](c2cc(F)ccc2Cl)c2c(NC(=O)N3C[C@@](O)(C(F)(F)F)c4cc(F)ccc43)cccc21 (single isomer, unassigned) [Compound I-2514]
The IC50 of the first is lower: 1 to 10 µM for the first, 10 to 100 µM for the second.

Compared with `[2H]c1nc2cnc(-c3cc(NC(=O)c4cc(F)cc(C(F)(F)F)c4)c4c(c3)C(=O)N[C@H]4c3cc(F)ccc3Cl)cn2n1` [Compound I-2069], `O=C(Nc1cc(-c2cscn2)cc2c1[C@@H](c1cc(F)ccc1Cl)NC2=O)c1cc(F)cc(C(F)(F)F)c1` [Compound I-1085] is higher in IC50: at most 0.1 µM for the first, 1 to 10 µM for the second. The first is the more potent here.

`N#Cc1ccc(C(F)(F)F)c(NC(=O)Nc2cc(Br)cc3c2C(c2cc(F)ccc2Cl)NC3=O)c1` (stereo not drawn) [Compound I-1051] and `O=C(Nc1cc(Br)cc2c1C(c1cc(F)ccc1Cl)NC2=O)c1cc(C(F)(F)F)cs1` (stereo not drawn) [Compound I-1428] fall in the same range of IC50: 1 to 10 µM for the first, 1 to 10 µM for the second.

`O=C(Nc1cc(N2CC3(CCO3)C2)cc2c1C(c1cc(F)ccc1Cl)NC2=O)c1cc(F)cc(C(F)(F)F)c1` (stereo not drawn) [Compound I-1310] and `O=C(Nc1cc(N2CC3(CCN3)C2)cc2c1C(c1cc(F)ccc1Cl)NC2=O)c1cc(F)cc(C(F)(F)F)c1` (stereo not drawn) [Compound I-1388] fall in the same range of IC50: 0.1 to 0.5 µM for the first, 0.1 to 0.5 µM for the second.

`O=C(Nc1cc(Br)cc2c1C(c1cc(F)ccc1Cl)NC2=O)c1ccc(OC(F)(F)F)c(F)c1` (stereo not drawn) [Compound I-1313] and `O=C(Nc1cc(Br)cc2c1C(c1cc(F)ccc1Cl)NC2=O)c1cccc(C2CC2)c1` (stereo not drawn) [Compound I-569] fall in the same range of IC50: 1 to 10 µM for the first, 1 to 10 µM for the second.

First: N#CCc1ccc(NC(=O)N2C[C@@](O)(C(F)(F)F)c3cc(F)ccc32)c2c1C(=O)N[C@@H]2c1cc(F)ccc1Cl (single isomer, unassigned) [Compound I-2617]
Second: [2H][C@]1(c2cc(F)ccc2Cl)NC(=O)c2cccc(NC(=O)N3C[C@](O)(C(F)(F)F)c4cc(F)ccc43)c21 (single isomer, unassigned) [Compound I-2684]
The IC50 of the first is lower: 1 to 10 µM for the first, 10 to 100 µM for the second. The first is the more potent here.

`N#C[C@H]1CCN(C(=O)Nc2cc(-c3ccc4ncnn4c3)cc3c2C(c2cc(F)ccc2Cl)NC3=O)C1` (mixture of isomers) [Compound I-2415] and `N#CCC(=O)Nc1cc(-c2ccc3ncnn3c2)cc2c1C(c1cc(F)ccc1Cl)NC2=O` (stereo not drawn) [Compound I-2000] fall in the same range of IC50: 10 to 100 µM for the first, 10 to 100 µM for the second.

Compared with `Cc1ccccc1C1NC(=O)c2cccc(NC(=O)c3cc(F)cc4c(C(=O)C(F)(F)F)c[nH]c34)c21` (stereo not drawn) [Compound I-408], `CNC(=O)c1cc(NC(=O)c2cc(F)cc(C(F)(F)F)c2)c2c(c1)C(=O)NC2c1ccccc1C` (stereo not drawn) [Compound I-156] is lower in IC50: 10 to 100 µM for the first, at most 0.1 µM for the second.

First: Cc1cnc2ccc(-c3cc(NC(=O)c4cc(F)cc(C(F)(F)F)c4)c4c(c3)C(=O)NC4c3cc(F)ccc3Cl)nn12 (stereo not drawn) [Compound I-1190]
Second: O=C(Nc1cc(-c2ccc3ncc(C(F)F)n3c2)cc2c1[C@@H](c1cc(F)ccc1Cl)NC2=O)c1cc(F)cc(C(F)(F)F)c1 [Compound I-1936]
The IC50 of the first is lower: at most 0.1 µM for the first, 0.5 to 1 µM for the second.

`Cc1ccccc1C1NC(=O)c2cc(NS(C)(=O)=O)cc(NC(=O)c3cc(F)cc(C(F)(F)F)c3)c21` (stereo not drawn) [Compound I-56] and `O=C(Nc1cc(NC(=O)C(F)F)cc2c1C(c1cc(F)ccc1Cl)NC2=O)c1cc(F)cc(C(F)(F)F)c1` (stereo not drawn) [Compound I-467] cannot be ordered by IC50: 0.1 to 0.5 µM for the first, at most 0.1 µM for the second.

`O=C(Nc1cc(-c2cnn(S(=O)(=O)C(F)F)c2)cc2c1[C@@H](c1cc(F)ccc1Cl)NC2=O)c1cc(F)cc(C(F)(F)F)c1` [Compound I-2092] and `O=C(Nc1cc(-c2ccc(=O)n(C(F)F)c2)cc2c1C(c1cc(F)ccc1Cl)NC2=O)c1cc(F)cc(C(F)(F)F)c1` (stereo not drawn) [Compound I-1768] cannot be ordered by IC50: 0.1 to 0.5 µM for the first, at most 0.1 µM for the second.

`O=C1N[C@H](c2cc(F)ccc2Cl)c2c(NC(=O)[C@@H]3C[C@@H](O)C[C@H](C(F)(F)F)C3)cccc21` (single isomer, unassigned) [Compound I-2176] and `CNc1cc(C(F)(F)F)cc(C(=O)Nc2cccc3c2C(c2cc(F)ccc2Cl)NC3=O)n1` (stereo not drawn) [Compound I-839] fall in the same range of IC50: 10 to 100 µM for the first, 10 to 100 µM for the second.

`O=C(Nc1cc(OC2CCOC2)cc2c1C(c1cc(F)ccc1Cl)NC2=O)c1cc(F)cc(C(F)(F)F)c1` (stereo not drawn) [Compound I-1184] and `N#C[C@H]1C[C@@H](Oc2cc(NC(=O)c3cc(F)cc(C(F)(F)F)c3)c3c(c2)C(=O)N[C@H]3c2cc(F)ccc2Cl)C1` [Compound I-1334] cannot be ordered by IC50: at most 0.1 µM for the first, at most 0.1 µM for the second.

Compared with `O=C(Nc1cc(-c2ccc3ncnn3c2)cc2c1[C@H](c1cc(Cl)ccc1Cl)NC2=O)c1cc(F)cc(C(F)(F)F)c1` [Compound I-1053], `O=C(Nc1cc(-c2ccc3nc(C(F)F)cn3c2)cc2c1[C@@H](c1cc(F)ccc1Cl)NC2=O)c1cc(F)cc(C(F)(F)F)c1` [Compound I-1928] is higher in IC50: 0.5 to 1 µM for the first, 1 to 10 µM for the second. The first is the more potent here.

`CS(=O)(=O)N1CCC[C@@H]1COc1cc(NC(=O)c2cc(F)cc(C(F)(F)F)c2)c2c(c1)C(=O)NC2c1cc(F)ccc1Cl` (single isomer, unassigned) [Compound I-1378] and `O=C(Nc1cc(O[C@H]2CC[C@H]2O)cc2c1C(c1cc(F)ccc1Cl)NC2=O)c1cc(F)cc(C(F)(F)F)c1` (mixture of isomers) [Compound I-1210] cannot be ordered by IC50: at most 0.1 µM for the first, at most 0.1 µM for the second.

`O=C(Nc1cc(N2CC(C(F)F)C2)nc2c1C(c1cc(F)ccc1Cl)NC2=O)c1cc(F)cc(C(F)(F)F)c1` (stereo not drawn) [Compound I-487] and `O=C(Nc1cc(OC2CN(C(=O)C(F)(F)F)C2)cc2c1C(c1cc(F)ccc1Cl)NC2=O)c1cc(F)cc(C(F)(F)F)c1` (racemic) [Compound I-1320] cannot be ordered by IC50: at most 0.1 µM for the first, 0.1 to 0.5 µM for the second.

Compared with `O=C(Nc1cccc2c1[C@@H](C1CCC[C@H](O)C1)NC2=O)c1cc(F)cc(C(F)(F)F)c1` (single isomer, unassigned) [Compound I-2225], `N#CCc1cc(NC(=O)c2cc(F)cc(C(F)(F)F)c2)c2c(c1)C(=O)NC2c1cc(F)ccc1Cl` (stereo not drawn) [Compound I-533] is lower in IC50: 10 to 100 µM for the first, at most 0.1 µM for the second.

First: CC(=O)c1cc(NC(=O)c2nsc3ccccc23)c2c(c1)C(=O)NC2c1cc(F)ccc1Cl (stereo not drawn) [Compound I-135]
Second: O=C(Cc1c[nH]c2ccccc12)Nc1cc(Br)cc2c1C(c1cc(F)ccc1Cl)NC2=O (stereo not drawn) [Compound I-953]
The IC50 of the first is lower: 0.5 to 1 µM for the first, 10 to 100 µM for the second.

`COCc1cc2c(c(N(C)C(=O)c3nsc4ccccc34)c1)C(c1ccccc1C)NC2=O` (stereo not drawn) [Compound I-134, N-(6-(Methoxymethyl)-1-oxo-3-(o-tolyl)isoindolin-4-yl)-N-methylbenzo[d]isothiazole-3-carboxamide] and `Cn1ncc(C2NC(=O)c3cccc(NC(=O)c4nsc5ccccc45)c32)c1C(F)F` (stereo not drawn) [Compound I-241] fall in the same range of IC50: 10 to 100 µM for the first, 10 to 100 µM for the second.

`O=C(Nc1cc(NC(=O)N2CC(F)(F)C2)cc2c1C(c1cc(F)ccc1Cl)NC2=O)c1cc(F)cc(C(F)(F)F)c1` (stereo not drawn) [Compound I-513] and `CC(=O)N1CCC12CN(c1cc(NC(=O)c3cc(F)cc(C(F)(F)F)c3)c3c(c1)C(=O)NC3c1cc(F)ccc1Cl)C2` (stereo not drawn) [Compound I-1387] cannot be ordered by IC50: at most 0.1 µM for the first, 0.1 to 0.5 µM for the second.

`C[C@@H](C#N)Cn1cc(-c2cc(NC(=O)N3C[C@H](O)c4cc(F)ccc43)c3c(c2)C(=O)N[C@H]3c2cc(F)ccc2Cl)cn1` (single isomer, unassigned) [Compound I-2499] and `O=C1N[C@H](c2cc(F)ccc2Cl)c2c(NC(=O)N3C[C@H](O)c4cc(F)ccc43)cc(-c3cnn(C(F)F)c3)cc21` (single isomer, unassigned) [Compound I-2475] fall in the same range of IC50: 1 to 10 µM for the first, 1 to 10 µM for the second.

`O=C1NC(c2cc(F)ccc2Cl)c2c(Cn3ccccc3=O)cc(-c3ccc4ncnn4c3)cc21` (stereo not drawn) [Compound I-1980] and `O=C1N[C@@H](c2cc(F)ccc2Cl)c2c1cc(-c1ccc3ncnn3c1)cc2S(=O)(=O)Cc1ccccc1` (single isomer, unassigned) [Compound I-1906] fall in the same range of IC50: 10 to 100 µM for the first, 10 to 100 µM for the second.

`O=C1NC(c2cc(F)ccc2Cl)c2c(NC(=O)C3(c4ccc(Cl)c(Cl)c4)CCCC3)cc(Br)cc21` (stereo not drawn) [Compound I-1636] and `Cn1c(Cl)cc(C(=O)Nc2cc(Br)cc3c2[C@@H](c2cc(F)ccc2Cl)NC3=O)cc1=O` [Compound I-2096] fall in the same range of IC50: 10 to 100 µM for the first, 10 to 100 µM for the second.

First: O=C(Nc1cc(-c2cnn(C(F)F)c2)cc2c1C(c1cc(F)cc(F)c1)NC2=O)c1cc(F)cc(F)c1 (stereo not drawn) [Compound I-2161]
Second: O=C(Nc1cc(-c2ccc3ncnn3c2)cc2c1[C@@H](c1cc(F)ccc1Cl)NC2=O)c1cc(F)cc2c1NC(=O)C2(F)F [Compound I-1583]
The IC50 of the first is lower: 0.1 to 0.5 µM for the first, 1 to 10 µM for the second. The first is the more potent here.

`Cn1cc(C(=O)Nc2cccc3c2CNC3=O)c2ccccc21` [Compound I-403] and `O=C1NCc2c(NC(=O)N3CCCC[C@@H]3Cc3ccccc3)cccc21` (stereo in doubt) [Compound I-989] fall in the same range of IC50: 10 to 100 µM for the first, 10 to 100 µM for the second.

Compared with `O=C1NC(c2cc(F)ccc2Cl)c2c(NC(=O)n3nc(O)c4ccccc43)cccc21` (stereo not drawn) [Compound I-2315], `O=C1NC(c2cc(F)ccc2Cl)c2c(NC(=O)N3CCC3c3ccccc3)cccc21` (stereo not drawn) [Compound I-2321] is higher in IC50: 1 to 10 µM for the first, 10 to 100 µM for the second.

`N#Cc1cccc2c1CCN2C(=O)Nc1cccc2c1C(c1cc(F)ccc1Cl)NC2=O` (stereo not drawn) [Compound I-2425] and `O=C1NC(c2cc(F)ccc2Cl)c2c(NC(=O)c3noc4c3COCC4)cccc21` (stereo not drawn) [Compound I-2232] fall in the same range of IC50: 10 to 100 µM for the first, 10 to 100 µM for the second.
